Experimental data reported in ChEMBL document CHEMBL5518182, “Discovery and development of BI 1265162, an ENaC inhibitor for the treatment of cystic fibrosis” (Eur J Med Chem, 2024).
Activity calls are given as the source filed them. The rule behind the calls is not given here.

Tests used:
Cytochrome P450 2C19 = Cytochrome P450 2C19 (Homo sapiens, UniProt P33261); assay: Inhibition of CYP2C19 in human liver microsomes using (S)-mephenytoin as substrate in presence of NADPH by LC-MS/MS analysis; type: ADME, Microsome
Cytochrome P450 2C19, sequence (P33261 whole entry): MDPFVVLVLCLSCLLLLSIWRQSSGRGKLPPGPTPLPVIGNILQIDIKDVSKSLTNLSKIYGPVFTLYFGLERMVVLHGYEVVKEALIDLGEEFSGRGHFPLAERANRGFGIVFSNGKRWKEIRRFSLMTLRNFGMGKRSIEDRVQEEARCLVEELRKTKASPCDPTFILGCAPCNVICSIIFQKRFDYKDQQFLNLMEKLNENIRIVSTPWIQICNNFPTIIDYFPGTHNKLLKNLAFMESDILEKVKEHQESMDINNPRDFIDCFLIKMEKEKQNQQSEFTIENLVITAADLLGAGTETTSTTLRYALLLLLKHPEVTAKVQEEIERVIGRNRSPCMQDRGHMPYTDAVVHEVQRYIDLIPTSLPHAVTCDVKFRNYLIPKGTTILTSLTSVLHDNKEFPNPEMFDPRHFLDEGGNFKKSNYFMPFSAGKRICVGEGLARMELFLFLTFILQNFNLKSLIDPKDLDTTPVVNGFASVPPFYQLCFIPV

[1] = Metabolic stability in human liver microsomes assessed as liver blood flow at 1 uM by LC-MS/MS analysis; type: ADME, Microsome; conditions: read-out: QH
[2] = Lipophilicity, logD of compound at pH 7.4; type: physicochemical; conditions: buffer
[3] = Permeability of compound by PAMPA assay; type: ADME; conditions: read-out: permeability
M1 cell = assay: Inhibition of ENaC-mediated water resorption in mouse M1 cells at 3 uM by radiometric dilution assay relative to control; type: cell-based
[4] = Permeability across apical to basal side in human Caco-2 cells by LC-MS/MS analysis; type: ADME, cell-based; conditions: read-out: permeability
Cytochrome P450 2D6 = Cytochrome P450 2D6 (Homo sapiens, UniProt P10635); assay: Inhibition of CYP2D6 in human liver microsomes using dextromethorphan as substrate in presence of NADPH by LC-MS/MS analysis; type: ADME, Microsome
Cytochrome P450 2D6, sequence (P10635 whole entry): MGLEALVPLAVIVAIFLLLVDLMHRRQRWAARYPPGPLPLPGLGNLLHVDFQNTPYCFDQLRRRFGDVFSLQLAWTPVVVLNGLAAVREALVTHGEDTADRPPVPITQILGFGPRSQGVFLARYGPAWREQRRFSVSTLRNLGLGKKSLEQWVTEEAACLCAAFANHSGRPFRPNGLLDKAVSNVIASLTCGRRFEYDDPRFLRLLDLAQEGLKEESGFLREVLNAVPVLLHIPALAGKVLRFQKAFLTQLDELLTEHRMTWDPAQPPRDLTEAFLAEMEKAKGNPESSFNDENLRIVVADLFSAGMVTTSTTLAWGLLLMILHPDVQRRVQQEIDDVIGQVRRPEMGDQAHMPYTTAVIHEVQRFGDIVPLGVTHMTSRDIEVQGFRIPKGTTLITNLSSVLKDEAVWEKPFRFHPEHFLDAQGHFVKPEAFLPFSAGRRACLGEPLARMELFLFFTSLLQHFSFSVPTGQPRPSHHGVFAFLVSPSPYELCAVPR

[5] = Permeability across basal to apical side in human Calu-3 cells at 0.1 to 300 uM measured upto 2 hrs by HPLC-MS/MS analysis; type: ADME, cell-based; conditions: dose 0.1-300 µM, read-out: permeability
[6] = Metabolic stability in rat liver microsomes assessed as liver blood flow at 1 uM by LC-MS/MS analysis; type: ADME, Microsome; conditions: read-out: QH
[7] = Metabolic stability in human hepatocytes assessed as liver blood flow at 1 uM incubated for 6 hrs by HPLC-MS/MS analysis; type: ADME, cell-based, Hepatocyte; conditions: read-out: QH
[8] = Inhibition of ENaC in mouse M1 cells upto 10 uM by chamber assay; type: cell-based; conditions: m1 cell
[9] = Genotoxicity in Salmonella typhimurium TA1537 incubated for 48 hrs in presence of rat liver S9 fraction by Ames test; type: toxicity, subcellular; conditions: salmonella enterica subsp. enterica serovar typhimurium, s9, 48 h
[10] = Solubility of compound at pH 5; type: physicochemical; conditions: buffer
Rattus norvegicus [11] = assay: Acute effect on Han Wistar rat model of lung fluid absorption administered intratracheally measured after 3 hrs; type: functional; conditions: route it(Intratracheal)
[12] = Genotoxicity in Salmonella typhimurium TA100 incubated for 48 hrs in presence of rat liver S9 fraction by Ames test; type: toxicity, subcellular; conditions: salmonella enterica subsp. enterica serovar typhimurium, s9, 48 h
[13] = Cytotoxicity against human U-937 cells by MTT assay; type: toxicity, cell-based
[14] = Genotoxicity in Escherichia coli WP2 uvrA (pKM 101) incubated for 48 hrs in presence of rat liver S9 fraction by Ames test; type: toxicity, subcellular; conditions: s9, 48 h
[15] = Metabolic stability in rat hepatocytes assessed as liver blood flow at 1 uM incubated for 6 hrs by HPLC-MS/MS analysis; type: ADME, cell-based, Hepatocyte; conditions: read-out: QH
Lung [16] = assay: Inhibition of lung water resorption in Wistar rat at 3 ug/kg, IT(Intratracheal) incubated for 3 hrs relative to control; type: functional
Rattus norvegicus [17] = assay: Upregulation of serum aldosterone level in Han Wistar rat model of lung fluid absorption at 3 ug/kg, IT(Intratracheal) measured after 3 hrs relative to control; type: functional; conditions: dose 3 µg/kg
[18] = biological target: Acetylcholinesterase (Homo sapiens) (UniProt P22303); assay: Inhibition of AChE (unknown origin) at 10 uM relative to control
Acetylcholinesterase (Homo sapiens), sequence (P22303 whole entry): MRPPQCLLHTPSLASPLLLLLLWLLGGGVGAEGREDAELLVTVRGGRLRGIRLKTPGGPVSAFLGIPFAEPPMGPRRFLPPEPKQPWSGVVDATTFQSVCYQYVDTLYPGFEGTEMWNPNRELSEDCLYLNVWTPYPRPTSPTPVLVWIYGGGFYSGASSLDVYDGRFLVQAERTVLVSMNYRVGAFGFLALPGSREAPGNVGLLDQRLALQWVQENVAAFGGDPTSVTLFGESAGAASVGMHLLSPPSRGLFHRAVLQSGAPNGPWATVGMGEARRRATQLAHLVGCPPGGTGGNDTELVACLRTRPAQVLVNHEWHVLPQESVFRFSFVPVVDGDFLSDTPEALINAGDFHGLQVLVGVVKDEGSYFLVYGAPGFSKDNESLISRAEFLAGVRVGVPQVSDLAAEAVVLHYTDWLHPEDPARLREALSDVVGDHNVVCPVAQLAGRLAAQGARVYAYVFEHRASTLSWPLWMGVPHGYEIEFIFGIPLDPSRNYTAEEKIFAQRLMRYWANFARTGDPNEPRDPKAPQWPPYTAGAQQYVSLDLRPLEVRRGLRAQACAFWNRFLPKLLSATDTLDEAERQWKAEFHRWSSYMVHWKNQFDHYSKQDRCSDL

[19] = Cytotoxicity against human 16HBE14o- cells by plasma damage based analysis; type: toxicity, cell-based
[20] = Clearance in Han Wistar rat assessed as liver blood flow at 0.5 umol/kg; type: ADME, tissue-based; conditions: in vivo, at 0.5 µmol/kg
[21] = Cytotoxicity against rat hepatocytes by LDH assay; type: toxicity, cell-based, Hepatocyte
Cytochrome P450 1A2 = biological target: T1, Cytochrome P450 1A2 (Homo sapiens, UniProt P05177); assay: Inhibition of CYP1A2 in human liver microsomes in presence of NADPH by LC-MS/MS analysis; type: ADME, Microsome
T1 sequence (P05177 whole entry): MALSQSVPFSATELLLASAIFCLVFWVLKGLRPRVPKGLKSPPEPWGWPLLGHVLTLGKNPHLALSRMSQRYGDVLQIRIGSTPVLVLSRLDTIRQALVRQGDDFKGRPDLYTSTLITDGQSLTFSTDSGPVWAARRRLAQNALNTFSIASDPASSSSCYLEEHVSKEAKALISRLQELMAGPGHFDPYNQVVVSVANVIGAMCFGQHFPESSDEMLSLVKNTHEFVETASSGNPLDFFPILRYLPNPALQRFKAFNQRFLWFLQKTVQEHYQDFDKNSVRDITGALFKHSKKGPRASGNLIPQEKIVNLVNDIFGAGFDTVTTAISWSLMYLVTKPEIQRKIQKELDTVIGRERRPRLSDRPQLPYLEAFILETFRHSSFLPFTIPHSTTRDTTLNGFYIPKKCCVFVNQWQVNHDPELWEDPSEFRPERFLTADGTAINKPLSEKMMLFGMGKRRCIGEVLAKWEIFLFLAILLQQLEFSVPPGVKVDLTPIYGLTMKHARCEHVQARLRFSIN

Rattus norvegicus [22] = assay: Effect on Han Wistar rat model of lung fluid absorption at ED70 administered intratracheally measured after 20 hrs; type: functional; conditions: route it(Intratracheal)
Rattus norvegicus [23] = species: Rattus norvegicus; assay: Upregulation of serum potassium level in Han Wistar rat; type: functional, organism-based
[24] = Drug uptake in Han Wistar rat lung at 10 ug/kg, IT(Intratracheal) measured after 3 hrs by HPLC-TMS analysis; type: ADME, tissue-based; conditions: in vivo, inhaled_or_intranasal, 0.01 mg/kg, dose 10 µg/kg
[25] = MRT in Han Wistar rat; type: ADME; conditions: in vivo
Lung [26] = assay: Inhibition of lung water resorption in Wistar rat at 0.3 ug/kg, IT(Intratracheal) incubated for 3 hrs relative to control; type: functional
Cytochrome P450 2C9 = Cytochrome P450 2C9 (Homo sapiens, UniProt P11712); assay: Inhibition of CYP2C9 in human liver microsomes using diclofenac as substrate in presence of NADPH by LC-MS/MS analysis; type: ADME, Microsome
Cytochrome P450 2C9, sequence (P11712 whole entry): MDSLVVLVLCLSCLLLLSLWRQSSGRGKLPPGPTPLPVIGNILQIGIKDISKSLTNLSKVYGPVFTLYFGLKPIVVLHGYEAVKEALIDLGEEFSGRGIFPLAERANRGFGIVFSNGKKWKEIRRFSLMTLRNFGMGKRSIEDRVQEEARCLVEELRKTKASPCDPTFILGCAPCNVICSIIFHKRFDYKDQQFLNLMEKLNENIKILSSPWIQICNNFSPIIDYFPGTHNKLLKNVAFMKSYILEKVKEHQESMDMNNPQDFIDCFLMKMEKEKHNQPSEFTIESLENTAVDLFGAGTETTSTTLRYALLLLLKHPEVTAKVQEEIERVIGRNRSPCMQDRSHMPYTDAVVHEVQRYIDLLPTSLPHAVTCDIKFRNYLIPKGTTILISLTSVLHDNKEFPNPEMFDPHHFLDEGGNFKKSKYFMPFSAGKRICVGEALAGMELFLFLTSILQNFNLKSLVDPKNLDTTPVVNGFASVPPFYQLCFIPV

[27] = Genotoxicity in Salmonella typhimurium TA1535 incubated for 48 hrs in presence of rat liver S9 fraction by Ames test; type: toxicity, subcellular; conditions: salmonella enterica subsp. enterica serovar typhimurium, s9, 48 h
Cytochrome P450 3A4 = Cytochrome P450 3A4 (Homo sapiens, UniProt P08684); assay: Inhibition of CYP3A4 in human liver microsomes using midazolam as substrate in presence of NADPH by LC-MS/MS analysis; type: ADME, Microsome
Cytochrome P450 3A4, sequence (P08684 whole entry): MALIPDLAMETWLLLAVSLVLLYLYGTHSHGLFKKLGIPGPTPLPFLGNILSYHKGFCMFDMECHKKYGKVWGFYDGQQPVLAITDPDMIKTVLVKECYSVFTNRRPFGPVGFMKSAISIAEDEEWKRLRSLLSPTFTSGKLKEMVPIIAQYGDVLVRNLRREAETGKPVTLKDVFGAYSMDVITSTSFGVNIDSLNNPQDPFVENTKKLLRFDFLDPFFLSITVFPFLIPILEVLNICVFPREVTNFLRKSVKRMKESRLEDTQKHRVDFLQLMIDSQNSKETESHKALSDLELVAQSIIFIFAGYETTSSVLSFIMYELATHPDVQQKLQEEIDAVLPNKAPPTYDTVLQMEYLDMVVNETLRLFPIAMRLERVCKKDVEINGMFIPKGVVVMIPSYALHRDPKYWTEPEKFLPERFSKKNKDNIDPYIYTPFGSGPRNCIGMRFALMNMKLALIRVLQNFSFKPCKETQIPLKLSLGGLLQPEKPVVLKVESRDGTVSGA

[28] = Genotoxicity in Salmonella typhimurium TA98 incubated for 48 hrs in presence of rat liver S9 fraction by Ames test; type: toxicity, subcellular; conditions: salmonella enterica subsp. enterica serovar typhimurium, s9, 48 h
Lung [29] = assay: Inhibition of lung water resorption in Wistar rat at 30 ug/kg, IT(Intratracheal) incubated for 3 hrs relative to control; type: functional
BK channel = BK channel (Homo sapiens, UniProt Q12791); assay: Inhibition of BK channel (unknown origin) at 10 uM relative to control; type: toxicity
[30] = Drug uptake in Han Wistar rat lung at 8 ug/kg, IT(Intratracheal) measured after 3 hrs by HPLC-TMS analysis; type: ADME, tissue-based; conditions: in vivo, inhaled_or_intranasal, 0.008 mg/kg, dose 8 µg/kg
CaV3.2 = CaV3.2 (Homo sapiens, UniProt O95180); assay: Inhibition of CaV3.2 (unknown origin) at 10 uM relative to control; type: toxicity
CaV3.2, sequence (O95180 whole entry): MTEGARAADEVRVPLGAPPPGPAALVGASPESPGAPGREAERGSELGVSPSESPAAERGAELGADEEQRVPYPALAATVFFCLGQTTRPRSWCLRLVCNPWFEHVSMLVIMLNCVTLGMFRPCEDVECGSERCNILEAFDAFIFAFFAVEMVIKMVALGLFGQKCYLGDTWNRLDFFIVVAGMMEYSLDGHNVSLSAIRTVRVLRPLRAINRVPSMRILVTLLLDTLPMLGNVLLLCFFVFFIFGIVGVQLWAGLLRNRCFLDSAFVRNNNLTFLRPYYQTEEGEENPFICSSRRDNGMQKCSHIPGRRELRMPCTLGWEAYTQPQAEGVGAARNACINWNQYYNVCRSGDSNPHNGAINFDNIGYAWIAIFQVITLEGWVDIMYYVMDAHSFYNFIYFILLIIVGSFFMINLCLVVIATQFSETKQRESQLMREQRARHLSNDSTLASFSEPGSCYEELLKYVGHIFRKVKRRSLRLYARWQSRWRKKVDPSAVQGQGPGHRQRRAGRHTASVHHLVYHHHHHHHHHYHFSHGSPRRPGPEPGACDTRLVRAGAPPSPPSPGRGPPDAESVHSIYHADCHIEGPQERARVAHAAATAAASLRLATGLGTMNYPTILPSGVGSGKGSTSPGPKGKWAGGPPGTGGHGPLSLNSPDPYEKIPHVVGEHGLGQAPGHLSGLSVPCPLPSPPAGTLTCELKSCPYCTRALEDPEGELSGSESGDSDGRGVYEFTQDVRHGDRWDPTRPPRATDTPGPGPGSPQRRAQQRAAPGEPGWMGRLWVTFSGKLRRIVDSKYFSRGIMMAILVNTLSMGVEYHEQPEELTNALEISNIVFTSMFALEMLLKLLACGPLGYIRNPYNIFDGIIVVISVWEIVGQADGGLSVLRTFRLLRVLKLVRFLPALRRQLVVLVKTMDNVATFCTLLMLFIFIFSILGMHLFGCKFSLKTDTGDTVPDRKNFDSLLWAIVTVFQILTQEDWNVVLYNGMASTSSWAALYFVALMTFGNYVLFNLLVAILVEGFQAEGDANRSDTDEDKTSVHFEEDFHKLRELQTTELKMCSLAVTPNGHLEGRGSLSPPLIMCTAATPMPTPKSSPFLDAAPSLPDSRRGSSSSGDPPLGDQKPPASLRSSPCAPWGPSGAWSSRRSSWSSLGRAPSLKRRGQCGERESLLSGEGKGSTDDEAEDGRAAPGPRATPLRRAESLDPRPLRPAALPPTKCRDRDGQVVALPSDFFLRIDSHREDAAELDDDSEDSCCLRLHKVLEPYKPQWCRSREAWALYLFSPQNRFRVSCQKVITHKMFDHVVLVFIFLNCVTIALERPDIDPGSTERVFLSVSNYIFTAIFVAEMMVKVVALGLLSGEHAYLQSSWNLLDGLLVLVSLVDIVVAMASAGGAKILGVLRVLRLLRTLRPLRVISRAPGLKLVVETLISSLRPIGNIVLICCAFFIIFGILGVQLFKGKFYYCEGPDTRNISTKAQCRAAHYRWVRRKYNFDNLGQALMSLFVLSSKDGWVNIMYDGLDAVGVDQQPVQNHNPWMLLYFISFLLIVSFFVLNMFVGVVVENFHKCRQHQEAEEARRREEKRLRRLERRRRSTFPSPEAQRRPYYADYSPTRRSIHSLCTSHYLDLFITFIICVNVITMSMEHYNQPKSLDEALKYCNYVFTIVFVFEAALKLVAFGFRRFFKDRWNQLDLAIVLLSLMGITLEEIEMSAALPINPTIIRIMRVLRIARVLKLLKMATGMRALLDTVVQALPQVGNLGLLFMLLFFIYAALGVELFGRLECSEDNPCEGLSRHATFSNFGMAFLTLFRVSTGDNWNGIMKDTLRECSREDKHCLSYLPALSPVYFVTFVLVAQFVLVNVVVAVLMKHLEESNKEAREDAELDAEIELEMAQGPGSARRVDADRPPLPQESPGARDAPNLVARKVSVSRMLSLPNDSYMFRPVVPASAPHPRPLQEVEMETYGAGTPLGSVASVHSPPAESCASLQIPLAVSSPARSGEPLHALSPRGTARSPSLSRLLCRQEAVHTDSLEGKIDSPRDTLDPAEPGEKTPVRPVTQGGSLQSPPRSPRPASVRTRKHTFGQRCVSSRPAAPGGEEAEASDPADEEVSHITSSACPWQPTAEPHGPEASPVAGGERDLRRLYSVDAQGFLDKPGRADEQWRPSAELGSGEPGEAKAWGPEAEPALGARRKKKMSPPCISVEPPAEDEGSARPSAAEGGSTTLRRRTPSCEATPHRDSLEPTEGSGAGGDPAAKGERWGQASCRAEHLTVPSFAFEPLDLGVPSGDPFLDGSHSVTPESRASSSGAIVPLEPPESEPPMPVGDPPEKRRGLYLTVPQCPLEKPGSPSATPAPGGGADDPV

CaV3.1 = CaV3.1 (Homo sapiens, UniProt O43497); assay: Inhibition of CaV3.1 (unknown origin) at 10 uM relative to control; type: toxicity
CFTR = CFTR (Homo sapiens, UniProt P13569); assay: Inhibition of CFTR (unknown origin) at 10 uM relative to control; type: toxicity
[31] = Oral bioavailability in Han Wistar rat; type: ADME, organism-based; conditions: in vivo

CCn1c(CNC(=O)c2nc(Cl)cnc2N)[n+](CC)c2ccc(C(=O)N(C)CCN(C)C)cc21
IC50 (Cytochrome P450 2C19): > 50 µM
hepatic extraction ratio at 1 µM [1]: < 0.23
logD [2]: 0.2
Papp [3]: < 0.02 ×10⁻⁶ cm/s
inhibition (M1 cell): 81%
Papp A→B [4]: < 0.2 ×10⁻⁶ cm/s
IC50 (Cytochrome P450 2D6): > 50 µM
Papp B→A at 2 h, up to 300 µM [5]: < 0.21 ×10⁻⁶ cm/s
hepatic extraction ratio at 1 µM [6]: < 0.23
hepatic extraction ratio at 6 h, 1 µM [7]: 0.2
IC50 [8]: 0.0062 µM
Activity [9]: Non-Toxic
solubility [10]: > 2%
ED50 (Rattus norvegicus [11]): 0.1 µg/kg
ED70 (Rattus norvegicus [11]): 0.13 µg/kg
Activity [12]: Non-Toxic
IC50 [13]: > 800 µM
Activity [14]: Non-Toxic
hepatic extraction ratio at 6 h, 1 µM [15]: 0.2
inhibition in vivo at 0.003 mg/kg (Lung [16]): 33%
Activity (Rattus norvegicus [17]): <25%
inhibition [18]: 44%
IC50 [19]: > 800 µM
QH [20]: 84%
IC50 [21]: > 800 µM
IC50 (Cytochrome P450 1A2): > 50 µM
Efficacy (Rattus norvegicus [22]): 39%
Activity (Rattus norvegicus [23]): inactive
Drug uptake [24]: 55%
MRT [25]: 18 min
inhibition in vivo at 0.0003 mg/kg (Lung [26]): 27%
IC50 (Cytochrome P450 2C9): > 50 µM
Activity [27]: Non-Toxic
IC50 (Cytochrome P450 3A4): > 50 µM
Activity [28]: Non-Toxic

CC[n+]1c(CNC(=O)c2nc(Cl)cnc2N)n(CC2CCOCC2)c2ccc(OCC(=O)N(Cc3nc(C)ccc3O)C[C@H](C)O)cc21
inhibition (M1 cell): 72%
Papp B→A at 2 h, up to 300 µM [5]: 0.12 ×10⁻⁶ cm/s
IC50 [8]: 0.0086 µM
solubility [10]: > 5%
inhibition in vivo at 0.003 mg/kg (Lung [16]): 17%
inhibition [18]: 18%
inhibition in vivo at 0.03 mg/kg (Lung [29]): 33%
inhibition in vivo at 0.0003 mg/kg (Lung [26]): 8%

CCn1c(CNC(=O)c2nc(Cl)cnc2N)[n+](CC)c2cc(OCC(=O)NCCOCP(C)(C)=O)ccc21
inhibition (M1 cell): 72%
IC50 [8]: 0.0034 µM
ED50 (Rattus norvegicus [11]): 0.09 µg/kg
ED70 (Rattus norvegicus [11]): 0.18 µg/kg
inhibition in vivo at 0.003 mg/kg (Lung [16]): 31%
Activity (Rattus norvegicus [17]): <25%
inhibition [18]: 29%
Efficacy (Rattus norvegicus [22]): 31%
Activity (Rattus norvegicus [23]): inactive
inhibition in vivo at 0.03 mg/kg (Lung [29]): 30%
inhibition in vivo at 0.0003 mg/kg (Lung [26]): 30%

CCn1c(CNC(=O)c2nc(Cl)cnc2N)[n+](CC)c2ccc(OCC(=O)NCCOCP(C)(C)=O)cc21
IC50 (Cytochrome P450 2C19): > 50 µM
hepatic extraction ratio at 1 µM [1]: < 0.23
logD [2]: 0.1
Papp [3]: < 0.05 ×10⁻⁶ cm/s
Papp A→B [4]: 0.6 ×10⁻⁶ cm/s
IC50 (Cytochrome P450 2D6): > 50 µM
Papp B→A at 2 h, up to 300 µM [5]: 0.37 ×10⁻⁶ cm/s
hepatic extraction ratio at 1 µM [6]: < 0.23
hepatic extraction ratio at 6 h, 1 µM [7]: 0.17
Activity [9]: Non-Toxic
solubility [10]: > 5%
Activity [12]: Non-Toxic
IC50 [13]: > 800 µM
Activity [14]: Non-Toxic
hepatic extraction ratio at 6 h, 1 µM [15]: 0.28
inhibition at 10 µM (BK channel): < 50%
Drug uptake [30]: 26%
IC50 [19]: > 800 µM
QH [20]: 79%
IC50 [21]: > 800 µM
inhibition at 10 µM (CaV3.2): < 50%
inhibition at 10 µM (CaV3.1): < 50%
IC50 (Cytochrome P450 1A2): > 50 µM
inhibition at 10 µM (CFTR): < 50%
MRT [25]: 18 min
bioavailability [31]: < 5%
IC50 (Cytochrome P450 2C9): > 50 µM
Activity [27]: Non-Toxic
IC50 (Cytochrome P450 3A4): > 50 µM
Activity [28]: Non-Toxic

CCn1c(CNC(=O)c2nc(Cl)cnc2N)[n+](CCO)c2cc(OCC(=O)N3CCN(C(C)=O)CC3)ccc21
inhibition (M1 cell): 76%
Papp B→A at 2 h, up to 300 µM [5]: 0.7 ×10⁻⁶ cm/s
IC50 [8]: 0.018 µM
solubility [10]: > 5%
inhibition in vivo at 0.003 mg/kg (Lung [16]): 75%
inhibition [18]: 75%

CCn1c(CNC(=O)c2nc(Cl)cnc2N)[n+](CC)c2cc(C(=O)N3CCC(N(C)C)CC3)ccc21
inhibition (M1 cell): 79%
Papp B→A at 2 h, up to 300 µM [5]: < 0.13 ×10⁻⁶ cm/s
IC50 [8]: 0.0042 µM
solubility [10]: > 2%
inhibition in vivo at 0.003 mg/kg (Lung [16]): 25%
inhibition [18]: 11%
inhibition in vivo at 0.03 mg/kg (Lung [29]): 26%
inhibition in vivo at 0.0003 mg/kg (Lung [26]): 19%

CCn1c(CNC(=O)c2nc(Cl)c(N)nc2N)[n+](CC)c2cc(OCCCP(=O)([O-])OCCOC)ccc21
inhibition (M1 cell): 98%
Papp B→A at 2 h, up to 300 µM [5]: 0.03 ×10⁻⁶ cm/s
IC50 [8]: 0.0042 µM
solubility [10]: > 5%
inhibition in vivo at 0.003 mg/kg (Lung [16]): 12%
inhibition in vivo at 0.03 mg/kg (Lung [29]): 22%

CCn1c(CNC(=O)c2nc(Cl)c(N)nc2N)[n+](CC)c2cc(OCCCP(=O)([O-])OC[C@H]3CCCO3)ccc21
inhibition (M1 cell): 89%
Papp B→A at 2 h, up to 300 µM [5]: 0.06 ×10⁻⁶ cm/s
IC50 [8]: 0.01 µM
solubility [10]: > 5%
inhibition in vivo at 0.003 mg/kg (Lung [16]): 14%
inhibition in vivo at 0.03 mg/kg (Lung [29]): 16%
